Experiments:
[1] = test system: BLM melanoma cells; assay: PI/Annexin V staining FACS, BLM; assay type: cell-based, human; details: 10 μM, 6 hours treatment
Method: (§1) (A) Cell cycle FACS analyses of PI stained BLM and SK-MEL-28 melanoma cells. 100 μM of 8-PN-induced a G2 arrest in both cells. (B) FACS analyses of BLM and SK-MEL-28 melanoma cells treated with 100 μM 6-PN or 8-PN and stained for annexin V/PI; staurosporin was used as control for apoptosis induction and DMSO as vehicle control. […] (C) BLM and SK-MEL-28 melanoma cells were treated with 100 μM of PNs; TSA, SAHA and EMSO were used as controls.
(§2) To further analyze the possibility of apoptosis induction, an extensive apoptosis assay was performed on SK-MEL-28 melanoma cells 4 hours after treatment with 100 μM 6-PN or 8-PN (FIG. 9). […] This was verified by FACS cell cycle analyses to screen for a possible increase of the sub-G1 fraction of cells (apoptotic cells) or for the induction of a G2 arrest (inhibition of proliferation). […] To further differentiate between the induction of apoptosis and/or necrosis an PI/Annexin V staining of SK-MEL-28 and BLM cells was performed 4 hours and 24 hours after the treatment with 6-PN or 8-PN; 10 μM staurosporin (6 hours treatment) was used as positive control for the induction of apoptosis; DMSO treatment was used as vehicle control. The cells were then analyzed by FACS.

[2] = test system: SK-MEL-28 melanoma cells; assay: PI/Annexin V staining FACS, SK-MEL-28; assay type: cell-based, human; details: SK-MEL-28, 10 μM, 6 hours treatment
Method: as §1, §2

[3] = test system: BLM melanoma cells; assay: MUH proliferation assay, BLM; assay type: cell-based, human; details: addition of 5 μM IM-54 to 6-PN/8-PN treatment
Method: (§3) FIG. 5: real time cell monitoring of BLM and SK-MEL-28 melanoma cells treated with 6-PN and 8-PN. (A) BML and SK-MEL-28 cells were treated 24 hours after seeding with different concentrations of 6-PN and 8-PN (20 μM, 50 μM and 100 μM) over a 104 hour time period. The cellular impedance was measured over the entire observation time using the xCELLigence™ SP system and is depicted by the cell index (CI). All CI-values were normalized shortly before the treatment started. […] As a positive control, Triton X-100 0.1% was used to induce cell death. Shown are the mean±SD of three independent experiments, each performed in triplicates (B, C). […] Shown are the mean±SD; the experiments were performed in quadruplicates. (D) The MUH proliferation assay was repeated unter the same treatment conditions on primary human fibroblasts (FF868) and melanocytes (HEM1).
(§4) The cells were seeded in triplicates in 96-well plates at a density of 2,500 cells per well in 50 μl medium (5×10^4 cells per milliliter). […] Plates were incubated at 37° C. for 1 hour and measured in a Fluoroskan II (Lab Systems, Helsinki, Finland) with a […]. The intensity of fluorescence indicates the number of viable cells in the wells. […]

[4] = test system: SK-MEL-28 melanoma cells; assay: MUH proliferation assay, SK-MEL-28; assay type: cell-based, human; details: SK-MEL-28, addition of 5 μM IM-54 to 6-PN/8-PN treatment
Method: as §3, §4

[5] = test system: foreskin melanocytes (HEM1); assay: MUH proliferation assay, melanocytes; assay type: cell-based; details: 6-PN, 8-PN at higher concentrations (0.1 μM to 100 μM tested); TSA, SAHA 100 μM
Method: as §3
(§5) The cells were seeded in triplicates in 96-well plates at a density of 2,500 cells per well in 50 μl medium (5×10^4 cells per milliliter). After 24 hours, the medium was replaced by medium containing 6-PN, 8-PN (dissolved in DMSO), TSA (dissolved in EtOH) or SAHA (dissolved in DMSO) at the concentrations to be tested with or without the addition of the necrosis inhibitor IM-54 at 5 μM (Calbiochem, Darmstadt, Germany). Cells treated with culture medium without or with DMSO served as controls. The assay was started following an incubation of 24 hours. […] Plates were incubated at 37° C. for 1 hour and measured in a Fluoroskan II (Lab Systems, Helsinki, Finland) with a […]. The intensity of fluorescence indicates the number of viable cells in the wells.
(§6) Next it was asked whether the PNs also influence the proliferation of benign cells. To this end, human fibroblasts (FF) and foreskin melanocytes (HEM1) were treated with the same concentrations of 6-PN and 8-PN, and proliferation was assessed using the proliferation assay as described above.

[6] = test system: primary human fibroblasts (FF868); assay: MUH proliferation assay, fibroblasts; assay type: cell-based; details: 6-PN, 8-PN 0.1 μM to 100 μM; TSA, SAHA 100 μM
Method: as §3, §5, §6

[7] = test system: cleaved caspase-3 in SK-MEL-28 melanoma cells; assay: Western blot for cleaved caspase-3; assay type: cell-based, human; details: SK-MEL-28, 100 μM
Method: Western blot analysis of SK-MEL-28 melanoma cells treated with 100 μM of 6-PN, 8-PN, SAHA or TSA. EtOH and DMSO were applied as controls.
The following antibodies were used: Anti-Vinculin and Anti-Actin (1:5000, Sigma-Aldrich), Anti-Acetyl-Histon H3 (1:5000, Millipore, Billerica, USA), Anti-Caspase-3 (1:1000), Anti-AKT, Anti-pAKT, Anti-ERK, Anti-pERK, […], Anti-p70S6 Kinase, and Anti-pS6 protein (1:1000), all from Cell Signaling, Frankfurt, Germany), Anti-LC3 (1:5000, Sigma-Aldrich).
To further analyze the type of cell death induced by 6-PN and 8-PN, western blot analyses of SK-MEL-28 melanoma cells were performed 1, 2, 4, 12 and 24 hours after the treatment with 100 μM 6-PN and 8-PN. […] Upon PN treatment an inconsistent expression of oncogenic AKT and phospho-AKT (pAKT) was detected. […] Thus, there was an obvious discrepancy between the expression of pAKT and pS6P. Therefore it was first also looked for the expression of P70S6 kinase and its phosphorylated form. […] Therefore it was next asked whether the S6P could be phosphorylated by a different mechanism. In this respect, activated ERK can phosphorylate the p90 ribosomal S6 kinase (pP90). pP90 also phosphorylates the S6P (in addition to the P70S6 kinase). Since the pP70S6 kinase was absent in the used cells (SK-MEL-28 and BLM), it was hypothesized that the phosphorylation of the S6P was conducted via the pERK/pP90 pathway, independent from the P70S6 signalling. This hypothesis was supported by the parallel down-regulation of the bands for pP90 (Thr359/Ser363) and pS6P 12 hours after the treatment with 6-PN, and the reappearance of both bands after 24 hours (FIG. 8). […] The western blot experiments were repeated with BLM cells under the same treatment conditions and yielded similar results (not shown).

| SMILES | melanocyte proliferation [5] | fibroblast proliferation [6] | band for cleaved caspase-3 [7] | further results |
| --- | --- | --- | --- | --- |
| CN[C@@H]1C[C@H]2O[C@@](C)([C@@H]1OC)n1c3ccccc3c3c4c(c5c6ccccc6n2c5c31)C(=O)NC4 [staurosporin, reference compound] |  |  |  | annexin V positive (apoptotic) cells ([1]; DMSO control 4.1%): 17.4%; PI positive (nectrotic) cells ([1]; DMSO control 9.1%): 16.6%; annexin V positive (apoptotic) cells ([2]; DMSO control 2.5%): 13.9%; PI positive (nectrotic) cells ([2]; DMSO control 7.9%): 9.3% |
| CCCCCNC1=C(c2cn(C)c3ccccc23)C(=O)N(C)C1=O [IM-54] |  |  |  | decrease of cell death rates at higher PN concentrations [3]: up to 35%; decrease of cell death rates at higher PN concentrations [4]: up to 35% |
| CC(/C=C/C(=O)NO)=C\[C@@H](C)C(=O)c1ccc(N(C)C)cc1 [TSA, trichostatin A] | no reduced proliferation | no reduced proliferation | no additional band |  |
| O=C(CCCCCCC(=O)Nc1ccccc1)NO [SAHA, suberoyl anilide hydroxamic acid] | no reduced proliferation | no reduced proliferation | no additional band |  |

Reference: patent US20160067211A1, “PHARMACEUTICAL COMPOSITION” (Eberhard Karls Universitaet Tuebingen Medizinische Fakultaet, priority 2013, published 2016)
